pEC50: −log10 of the molar value. Like-named read-outs stand apart in the source and are kept apart here.
Columns and labels:
[1] = target: T1, Human Peroxisome Proliferator-Activated Receptor (PPAR)α (Homo sapiens, UniProt Q07869); test: Transcription activation test for human PPARα (GAL4-hPPARαLBD luciferase reporter in CV-1 cells); type: cell-based; settings: firefly luciferase reporter, 24 hr with test compound in serum free medium, read-out: transactivation action (EC50, nmol/l)
T1 construct: expressed in transfected cells; host or cells: CV-1 cells (CCL-70)
T1 sequence (Q07869 239-466 limits assumed): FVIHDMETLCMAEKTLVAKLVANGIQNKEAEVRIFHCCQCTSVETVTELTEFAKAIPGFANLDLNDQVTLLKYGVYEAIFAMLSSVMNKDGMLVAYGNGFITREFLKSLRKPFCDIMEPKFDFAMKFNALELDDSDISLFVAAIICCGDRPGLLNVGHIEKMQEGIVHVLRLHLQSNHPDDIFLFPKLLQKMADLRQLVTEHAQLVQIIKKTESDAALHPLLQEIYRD
Text: Transcription Activation Test for Human Peroxisome Proliferator-Activated Receptor (PPAR)α
CV-1 cells (CCL-70, manufactured by Dainippon Pharma Co., Ltd.) cultured in Dulbecco's Modified Eagle Medium (DMEM) containing 10% fetal bovine serum (FBS) were transfected, using Lipofectamine 2000 (manufactured by Invitrogen), with pBIND vector (manufactured by Promega) a fusion that expresses protein (GAL4-hPPARαLBD, manufactured based on Diabetes 47: 1841-1847, 1998) of a DNA binding region of a yeast transcription factor (GAL4) and a human PPARα ligand binding region, and an internal standard renilla luciferase, and GAL4 responsive TK vector (manufactured by Promega) that expresses reporter firefly luciferase. 24 hr later, the medium was changed to a serum free medium containing a test compound, and the luciferase activity after 24 hr was measured.

[2] = tested on: high cholesterol diet-treated rat; test: Influence on serum lipid of high cholesterol diet-treated rat; type: in vivo, male SD rats; settings: 0.3 mg/kg p.o. once a day for 5 days, high cholesterol diet rats, non-fasting; for inhibition in vivo at 0.3 mg/kg: Rattus norvegicus, po, 120 h
Description: 2) Influence on Serum Lipid of High Cholesterol Diet-Treated Rat
8-week-old male SD rats (manufactured by SEAC Yoshitomi, Ltd.) were raised on a standard diet CE-2 (manufactured by Japan Clea, Inc.) added with 1% cholesterol, 2% olive oil and 0.2% cholic acid, from one week before test compound administration to the last day of the administration. A test compound and a control compound (GW-9578) were dissolved or suspended in 1% ethanol, 0.05% Tween80 (final concentration), and 0.5% hydroxypropylmethyl cellulose (HPMC) was added to adjust to a given concentration. The prepared solution was orally administered once a day for 5 days. After administration for 5 days, blood samples were collected from the jugular vein under non-fasting condition and blood lipid was measured by an enzyme method. The lowering rate was calculated by determining the rate of a value obtained by subtracting the average blood TG (or average blood TC) of a drug administration group from the average blood triglyceride (TG) (or average blood total cholesterol (TC)) of a vehicle administration group, to the average blood TG (or average blood TC) of the vehicle administration group.

normal rats = test: Blood triglyceride (TG)-lowering action in normal rats; type: in vivo; settings: 0.3 mg/kg p.o. once a day for 4 days, normal male SD rats, non-fasting, blood TG vs vehicle group; for inhibition in vivo at 0.3 mg/kg: Rattus norvegicus, po, 96 h, read-out: hypotriglyceridemic rate (%, 0.3 mg/kg, p.o.)
Description: 1) Blood Triglyceride (TG)-Lowering Action in Normal Rats
7 to 9-week-old male SD rats (manufactured by SEAC Yoshitomi, Ltd.) were used for the test. A test compound and a control compound (GW-9578: J. Med. Chem. 1999, 42, 3785-3788) were dissolved or suspended in 1% ethanol, 0.05% Tween80 (final concentration), and 0.5% hydroxypropylmethyl cellulose (HPMC) was added to adjust to a given concentration. The prepared solution was orally administered once a day for 4 days. After administration for 4 days, blood samples were collected from the jugular vein under non-fasting condition and blood TG was measured by an enzyme method. The lowering rate was calculated by determining the rate of a value obtained by subtracting the average blood TG of a drug administration group from the average blood TG of a vehicle administration group, to the average blood TG of the vehicle administration group.

[3] = blood total cholesterol vs vehicle group, read-out: lowering rate (%, 0.3 mg/kg, p.o.) TC
[4] = blood triglyceride vs vehicle group, read-out: lowering rate (%, 0.3 mg/kg, p.o.) TG

| Compound | pEC50 [1] | inhibition in vivo at 0.3 mg/kg [2, 3] [%] | inhibition in vivo at 0.3 mg/kg [2, 4] [%] | inhibition in vivo at 0.3 mg/kg (normal rats) [%] | lowering rate (%, 0.3 mg/kg, p.o.) TC ([2]; blood total cholesterol vs vehicle group) | lowering rate (%, 0.3 mg/kg, p.o.) TG ([2]; blood triglyceride vs vehicle group) | hypotriglyceridemic rate (%, 0.3 mg/kg, p.o.) (normal rats) |
| --- | --- | --- | --- | --- | --- | --- | --- |
| CC(C)(Sc1nc(CCOc2ccc(-c3ccc(F)cc3)cc2)cs1)C(=O)O [Example 34, 2-[(4-{2-[(4′-fluorobiphenyl-4-yl)oxy]ethyl}-1,3-thiazol-2-yl)thio]-2-methylpropionic acid] | 7.98 | 43 | 45 | 62 | – | – | – |
| CC(C)(Sc1nc(CCOc2ccc(-c3ccc(F)cc3)cn2)cs1)C(=O)O [Example 100] | 7.95 | 35 | 38 | 61 | – | – | – |
| CC(C)(Sc1nc(CCNc2ncc(-c3ccc(OC(F)(F)F)cc3)cn2)cs1)C(=O)O [Example 162, 2-methyl-2-({4-[2-({5-[4-(trifluoromethoxy)phenyl]pyrimidin-2-yl}amino)ethyl]-1,3-thiazol-2-yl}thio)propionic acid] | 7.68 | 31 | 48 | 65 | – | – | – |
| CC(C)(Sc1nc(CCNc2ccc(-c3ccc(C(F)(F)F)cc3F)nn2)cs1)C(=O)O [Example 224, 2-({4-[2-({6-[2-fluoro-4-(trifluoromethyl)phenyl]pyridazin-3-yl}amino)ethyl]-1,3-thiazol-2-yl}thio)-2-methylpropionic acid] | 7.53 | 31 | 57 | 63 | – | – | – |
| CC(C)(Sc1nc(CCNc2cnc(-c3ccc(Cl)cc3)cn2)cs1)C(=O)O [Example 226, 2-{[4-(2-{[5-(4-chlorophenyl)pyrazin-2-yl]amino}ethyl)-1,3-thiazol-2-yl]thio}-2-methylpropionic acid] | 7.78 | 38 | 56 | 64 | – | – | – |
| CCCCCCCN(CCc1csc(SC(C)(C)C(=O)O)n1)c1ncc(CC)cn1 [Example 265, 2-[(4-{2-[(5-ethylpyrimidin-2-yl)(heptyl)amino]ethyl}-1,3-thiazol-2-yl)thio]-2-methylpropionic acid] | 8.15 | 31 | 63 | 69 | – | – | – |
| CCc1cnc(N(CCc2csc(SC(C)(C)C(=O)O)n2)Cc2cnn(-c3ccccc3)c2)nc1 [Example 326, 2-{[4-(2-{(5-ethylpyrimidin-2-yl)[(1-phenyl-1H-pyrazol-4-yl)methyl]amino}ethyl)-1,3-thiazol-2-yl]thio}-2-methylpropionic acid] | 7.41 | 31 | 43 | 59 | – | – | – |
| CCc1cnc(N(C/C=C/c2ccccc2)CCc2csc(SC(C)(C)C(=O)O)n2)nc1 [Example 346, 2-{[4-(2-{(5-ethylpyrimidin-2-yl)[(2E)-3-phenylprop-2-en-1-yl]amino}ethyl)-1,3-thiazol-2-yl]thio}-2-methylpropionic acid] | 7.87 | 31 | 47 | 63 | – | – | – |
| CCCCCCCN(CCc1csc(SC(C)(C)C(=O)O)n1)c1ncc(N2CCOCC2)cn1 [Example 442, 2-[(4-{2-[heptyl(5-morpholin-4-ylpyrimidin-2-yl)amino]ethyl}-1,3-thiazol-2-yl)thio]-2-methylpropionic acid] | 8.26 | 38 | 39 | 65 | – | – | – |
| CCCCCCCN(CCc1ccc(SC(C)(C)C(=O)O)cc1)C(=O)Nc1ccc(F)cc1F [GW-9578, reference compound] | – | – | – | – | 30-50% | 30-50% | 50-60% |

Source: patent publication US8026370B2, “Carboxylic acid derivative containing thiazole ring and pharmaceutical use thereof” (Mitsubishi Tanabe Pharma Corporation, priority 2004, dated 2011)
